Target: T1, mAChR hM4 (Homo sapiens, UniProt P08173)
T1 construct: expressed in transfected cells; host or cells: CHO-K1 (Chinese hamster ovary) cells
T1 sequence (P08173 1-479): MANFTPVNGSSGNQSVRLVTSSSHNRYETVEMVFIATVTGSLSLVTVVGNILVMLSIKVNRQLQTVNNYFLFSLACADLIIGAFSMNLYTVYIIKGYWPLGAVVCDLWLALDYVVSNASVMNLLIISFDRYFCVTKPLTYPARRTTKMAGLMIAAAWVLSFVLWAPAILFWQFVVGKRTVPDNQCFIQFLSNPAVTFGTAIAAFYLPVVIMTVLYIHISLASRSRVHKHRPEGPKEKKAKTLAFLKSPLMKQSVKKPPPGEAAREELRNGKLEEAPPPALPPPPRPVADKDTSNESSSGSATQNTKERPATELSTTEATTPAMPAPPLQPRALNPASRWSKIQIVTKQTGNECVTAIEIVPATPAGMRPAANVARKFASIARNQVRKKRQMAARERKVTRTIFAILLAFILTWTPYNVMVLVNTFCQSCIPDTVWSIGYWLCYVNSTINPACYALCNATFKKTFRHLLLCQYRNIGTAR
Assay: mAChR M4 cell-based functional assay (calcium flux, potentiation of EC20 acetylcholine response)
Conditions: mAChR hM4 cell-line; for Emax at 30 µM: % ACh maximum at 30 μM; for EC50: >10,000 estimated for low potency compounds lacking a plateau
Description: In one aspect, the disclosed compounds potentiate the agonist response (e.g., acetylcholine) of mAChR M4. In a further aspect, the disclosed compounds increase mAChR M4 response to non-maximal concentrations of agonist in the presence of compound compared to the response to agonist in the absence of compound. […] For example, activation of mAChR M4 activity can be determined by measurement of calcium flux in response to agonist, e.g. acetylcholine, in cells loaded with a Ca^2+-sensitive fluorescent dye (e.g., Fluo-4). In a further aspect, the calcium flux was measured as an increase in fluorescent static ratio. In a yet further aspect, positive allosteric modulator activity was analyzed as a concentration-dependent increase in the EC20 acetylcholine response (i.e. the response of mAChR M4 at a concentration of acetylcholine that yields 20% of the maximal response).
In one aspect, the disclosed compounds activate mAChR M4 response as an increase in calcium fluorescence in mAChR M4-transfected CHO-K1 cells in the presence of the compound, compared to the response of equivalent CHO-K1 cells in the absence of the compound. […] In a further aspect, the mAChR M4-transfected CHO-K1 cells are transfected with human mAChR M4. In a still further aspect, the mAChR M4-transfected CHO-K1 cells are transfected with rat mAChR M4.
Substituted 3-aminothieno[2,3-c]pyridine-2-carboxamide analogs were synthesized as described above. Activity (EC50 and Emax) was determined in the mAChR M4 cell-based functional assay as described above, and the data are shown in Table II for assays conducted using mAChR hM4 cell-line. The compound number corresponds to the compound numbers used in Table I.

| Structure (SMILES) | Emax at 30 µM | EC50 |
| --- | --- | --- |
| Cc1cc(C)c2c(Br)c(C(=O)NC3CC3)sc2n1 [Compound 4, 3-bromo-N-cyclopropyl-4,6-dimethylthieno[2,3-b]pyridine-2-carboxamide] | 49% | 4.8 µM |
| Cc1cc(C)c2c(Br)c(C(=O)N3Cc4ccccc4C3)sc2n1 [Compound 5, (3-bromo-4,6-dimethylthieno[2,3-b]pyridin-2-yl)(isoindolin-2-yl)methanone] | – | > 10 µM |
| Cc1cc(C)c2c(Br)c(C(=O)NC3CCC3)sc2n1 [Compound 6, 3-bromo-N-cyclobutyl-4,6-dimethylthieno[2,3-b]pyridine-2-carboxamide] | 41% | > 10 µM |
| Cc1cc(C)c2c(Br)c(C(=O)NC3CCOC3)sc2n1 (stereo not shown) [Compound 7, 3-bromo-4,6-dimethyl-N-(tetrahydrofuran-3-yl)thieno[2,3-b]pyridine-2-carboxamide] | – | > 10 µM |
| Cc1cc(C)c2c(Br)c(C(=O)NC3(C)COC3)sc2n1 [Compound 8, 3-bromo-4,6-dimethyl-N-(3-methyloxetan-3-yl)thieno[2,3-b]pyridine-2-carboxamide] | 59% | 3.7 µM |
| Cc1cc(C)c2c(Br)c(C(=O)NCc3cccnc3)sc2n1 [Compound 9, 3-bromo-4,6-dimethyl-N-(pyridin-3-ylmethyl)thieno[2,3-b]pyridine-2-carboxamide] | 33% | 3 µM |
| COc1ccc(CNC(=O)c2sc3nc(C)cc(C)c3c2Br)cc1 [Compound 10, 3-bromo-N-(4-methoxybenzyl)-4,6-dimethylthieno[2,3-b]pyridine-2-carboxamide] | – | > 10 µM |
| Cc1cc(C)c2c(Br)c(C(=O)NCC(C)C)sc2n1 [Compound 11, 3-bromo-N-isobutyl-4,6-dimethylthieno[2,3-b]pyridine-2-carboxamide] | – | > 10 µM |
| Cc1cc(C)c2c(Br)c(C(=O)NC3CCOCC3)sc2n1 [Compound 12, 3-bromo-4,6-dimethyl-N-(tetrahydro-2H-pyran-4-yl)thieno[2,3-b]pyridine-2-carboxamide] | – | > 10 µM |

The next lines start with the values.

| Emax at 30 µM | EC50 | Structure (SMILES) |
| --- | --- | --- |
| 29% | > 10 µM | Cc1cc(C)c2c(Br)c(C(=O)NCC3CC3)sc2n1 [Compound 13, 3-bromo-N-(cyclopropylmethyl)-4,6-dimethylthieno[2,3-b]pyridine-2-carboxamide] |
| – | > 10 µM | Cc1cc(C)c2c(Br)c(C(=O)N3CCOCC3)sc2n1 [Compound 14, (3-bromo-4,6-dimethylthieno[2,3-b]pyridin-2-yl)(morpholino)methanone] |
| 55% | 4 µM | COc1ccc(CNC(=O)c2cc3c(C)cc(C)nc3s2)cc1 [Compound 15, N-(4-methoxybenzyl)-4,6-dimethylthieno[2,3-b]pyridine-2-carboxamide] |
| 51% | 2.6 µM | COc1ccc(CNC(=O)c2sc3nc(C)cc(C)c3c2I)cc1 [Compound 16, 3-iodo-N-(4-methoxybenzyl)-4,6-dimethylthieno[2,3-b]pyridine-2-carboxamide] |
| 53% | 2.4 µM | COc1ccc(CNC(=O)c2sc3nc(C)cc(C)c3c2C)cc1 [Compound 17, N-(4-methoxybenzyl)-3,4,6-trimethylthieno[2,3-b]pyridine-2-carboxamide] |
| 73% | > 10 µM | Cc1cc(C)c2c(C)c(C(=O)NC3CC3)sc2n1 [Compound 18, N-cyclopropyl-3,4,6-trimethylthieno[2,3-b]pyridine-2-carboxamide] |
| 62% | 4.2 µM | Cc1cc(C)c2c(C)c(C(=O)NCc3ccc(S(C)(=O)=O)cc3)sc2n1 [Compound 19, 3,4,6-trimethyl-N-(4-(methylsulfonyl)benzyl)thieno[2,3-b]pyridine-2-carboxamide] |
| 38% | 2.6 µM | Cc1cc(C)c2c(C)c(C(=O)NCc3ccc4c(c3)CCO4)sc2n1 [Compound 20, N-((2,3-dihydrobenzofuran-5-yl)methyl)-3,4,6-trimethylthieno[2,3-b]pyridine-2-carboxamide] |

Source: patent US20160200733A1, “SUBSTITUTED THIENO[2,3-B]PYRIDINE-2-CARBOXAMIDE ANALOGS AS POSITIVE ALLOSTERIC MODULATORS OF THE MUSCARINIC ACETYLCHOLINE RECEPTOR M4” (Vanderbilt University, priority 2013, published 2016)
